Source: ChEMBL document CHEMBL1134328 (J Med Chem, 2001)

Tests used:
[1] = molecular target: T1, Neuronal acetylcholine receptor subunit alpha-7 (Rattus norvegicus, UniProt Q05941); assay: In vitro binding affinity towards Nicotinic acetylcholine receptor alpha7 using [125I]alpha-bungarotoxin in rat brain; type: tissue-based
[2] = molecular target: T1, Neuronal acetylcholine receptor subunit alpha-7; assay: biochemical
Description: In vitro binding affinity towards Nicotinic acetylcholine receptor alpha7 using [125I]-alpha-Bungarotoxin in rat brain

T1 sequence (Q05941 whole entry): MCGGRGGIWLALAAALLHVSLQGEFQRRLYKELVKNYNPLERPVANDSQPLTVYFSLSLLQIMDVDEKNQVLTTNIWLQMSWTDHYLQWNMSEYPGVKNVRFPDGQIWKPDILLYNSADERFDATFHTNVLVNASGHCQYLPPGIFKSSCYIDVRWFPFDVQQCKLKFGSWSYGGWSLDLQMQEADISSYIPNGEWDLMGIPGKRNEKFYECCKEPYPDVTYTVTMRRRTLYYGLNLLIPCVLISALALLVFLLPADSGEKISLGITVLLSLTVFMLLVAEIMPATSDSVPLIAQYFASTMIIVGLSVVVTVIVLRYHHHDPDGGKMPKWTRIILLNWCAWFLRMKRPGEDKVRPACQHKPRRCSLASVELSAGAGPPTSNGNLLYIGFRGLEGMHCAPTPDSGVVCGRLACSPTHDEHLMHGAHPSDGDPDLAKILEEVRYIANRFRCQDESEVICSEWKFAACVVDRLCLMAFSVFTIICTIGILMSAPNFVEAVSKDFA

Row | SMILES | Ki [1] | Ki [2]
1 | CN1CCCC[C@H]1[C@H]1CCc2ccccc2O1 (racemic) | > 10 µM | 
2 | CN1CCCC[C@H]1[C@@H]1CCc2cc(O)ccc2O1 (racemic) | > 10 µM | 
3 | CN1CCCC[C@H]1[C@H]1CCc2cc(O)ccc2O1 (racemic) | > 10 µM | 
4 | CN1CCCC[C@H]1[C@@H]1CCc2ccccc2O1 (racemic) | > 10 µM | 
5 | Cc1ncccc1OCC1CCCN1 (single isomer, unassigned; form 1) [POZANICLINE] | > 10 µM | 
6 | Cc1ncccc1OCC1CCCN1 (single isomer, unassigned; form 2) | > 10 µM | 
7 | O=c1cccc2n1C[C@@H]1CNC[C@H]2C1 [CYTISINICLINE] |  | 0.0009 µM
